The record followed here is ChEMBL document CHEMBL3860053, “Optimization of amino acid thioesters as inhibitors of metallo-β-lactamase L1” (Bioorg Med Chem Lett, 2016).

In brackets after ≈: the same amount, converted by molar mass.

Assay [1] deals with Escherichia coli. The assay can be described thus: Potentiation of cefazolin-induced antibacterial activity against Escherichia coli BL21(DE3) assessed as cefazolin MIC at 16 ug/ml measured after 12 hrs by macrodilution broth method (reference value: 4 ug/ml). The class given is functional.
Assay [2] in a line: Inhibition of metallo-beta-lactamase L1 (unknown origin) overexpressed in Escherichia coli BL21(DE3) assessed as restoration of cefazolin antibacterial activity by measuring cefazolin MIC at 16 ug/ml measured after 12 hrs by macrodilution broth method (reference value: 16 ug/ml).
Assay [3] in a line: Inhibition of metallo-beta-lactamase L1 (unknown origin) overexpressed in Escherichia coli BL21(DE3) preincubated for 30 mins followed by addition of cefazolin as substrate by spectrophotometric method.

With `CSCC[C@H](NC(=O)c1ccccc1)C(=O)SCC(=O)O`, the MIC is 4 µg/mL in assay [1] and 4 µg/mL (≈ 12.2 µM) in assay [2]. In assay [3], the IC50 was 80 nM.

Regarding `O=C(O)CSC(=O)[C@H](Cc1ccccc1)NC(=O)Cc1ccccc1`, the MIC in assay [1] stood at 4 µg/mL; in assay [2], 2 µg/mL (≈ 5.6 µM). Besides, the IC50 in assay [3] was 250 nM.

Take `O=C(O)CSC(=O)[C@H](Cc1c[nH]c2ccccc12)NC(=O)Cc1ccc(-c2ccccc2)cc1`: the MIC in assay [1] turned out to be 4 µg/mL; in assay [2], 4 µg/mL (≈ 8.46 µM). In addition, in assay [3], inhibition was half-maximal at 80 nM (IC50).

`O=C(O)CSC(=O)[C@H](Cc1ccccc1)NC(=O)Cc1ccc(-c2ccccc2)cc1`: the results for the MIC in assay [1] and in assay [2] were 4 µg/mL and 2 µg/mL (≈ 4.61 µM), respectively. Besides, the IC50 in assay [3] was found to be 140 nM.

As to `CSCC[C@H](NC(=O)Cc1ccccc1)C(=O)SCC(=O)O`, the results for the MIC in assay [1] and in assay [2] were 4 µg/mL and 4 µg/mL (≈ 11.7 µM), respectively. Besides, in assay [3], the IC50 came out at 90 nM.

Turning to `CCCCCC(=O)N[C@@H](Cc1c[nH]c2ccccc12)C(=O)SCC(=O)O`, the values for the MIC in assay [1] and in assay [2] were 4 µg/mL and 4 µg/mL (≈ 10.6 µM), respectively. The compound also displayed an IC50 in assay [3] of 600 nM.

On to `CSCC[C@H](NC(=O)Cc1ccc(-c2ccccc2)cc1)C(=O)SCC(=O)O`, for which the MIC amounted to 4 µg/mL in assay [1] and 4 µg/mL (≈ 9.58 µM) in assay [2]. The same compound showed an IC50 in assay [3] of 20 nM.

As for `O=C(O)CSC(=O)c1ccc(NC(=O)OCc2ccccc2)cc1`, the results for the MIC in assay [1] and in assay [2] were 4 µg/mL and 16 µg/mL (≈ 46.3 µM), respectively.

Take `CCCCCC(=O)N[C@@H](Cc1ccccc1)C(=O)SCC(=O)O`: the MIC in assay [1] is 4 µg/mL; in assay [2] it was 2 µg/mL (≈ 5.93 µM). The compound further came in with an IC50 in assay [3] of 330 nM.

For `O=C(O)CSC(=O)[C@H](Cc1c[nH]c2ccccc12)NC(=O)Cc1ccccc1`, the figures for the MIC in assay [1] and in assay [2] were 4 µg/mL and 4 µg/mL (≈ 10.1 µM), respectively. Moreover, in assay [3], the midpoint of inhibition, the IC50, lay at 210 nM.
